Measurements published in patent US11364244B2, “Compositions for treatment of muscular disorders” (ONCOCROSS CO., LTD., priority 2018, dated 2022).

Columns and labels:
[1] = system: mice transplanted with colorectal cancer cells CT26; assay: Cancer-associated muscle and fat reduction (CT26 transplant + 5-FU, MRI); assay type: in vivo, mouse; conditions: for fat mass / muscle mass: CT26 + 5-FU mice, treated alone or in combination, MRI every week
Description: Cancer-associated sarcopenia was induced by administering 5-FU (5-fluorouracil) as an anticancer agent to mice transplanted with colorectal cancer cells CT26. […] MRI was measured every week to determine muscle and fat changes in OC-501 and 504 alone and combination-treated groups (FIG. 19).

[2] = system: Mouse myoblast strain C2C12; assay: Myoblast differentiation (microscope; Western blot of myogenin and MHC); assay type: cell-based; conditions: for differentiation of myoblast (microscope): single component 500 nM up to 10 or 20 μM, 400 μM H2O2, 2% horse serum, 5 to 7 days
Description: (§1) Mouse myoblast strain C2C12 was dispensed into 12-well plates at 0.7×10^5 cells/well and then cultured to a cell density of 70 to 80%. […] Differentiation of the myoblast was induced for 5 to 7 days while the replacement of the medium occurred every other day. After the differentiation, cells were identified using a microscope (4× and 10× magnification), and cells were disrupted and then Western blot analysis was performed using differentiation markers myogenin and myosin heavy chain (MHC) antibodies.
(§2) Mouse myoblast strain C2C12 was dispensed into 12-well plates at 0.7×10^5 cells/well and then cultured to a cell density of 70 to 80%. The cells were then washed with PBS and then the medium was replaced with DMEM medium (differentiation medium) containing 2% horse serum, 400 μM H2O2, and harmol (OC-503) of 0 nM (DMSO), 500 nM, 1 μM, 2.5 μM, 5 μM, or 10 μM respectively. Differentiation of the myoblast was induced for 5 to 7 days while the replacement of the medium occurred every other day. After the differentiation, cells were identified using a microscope, and cells were disrupted, and then Western blot analysis was performed using differentiation markers myogenin and myosin heavy chain (MHC) antibodies.
as §2, with “H2O2, and calcium pantothenate (OC-504) of 0” for “H2O2, and harmol (OC-503) of 0”, “500 nM, 2.5 μM,” for “500 nM, 1 μM, 2.5 μM,”, “5 μM, 10 μM or 20” for “5 μM, or 10”, “μM or 20 μM respectively.” for “μM, or 10 μM respectively.”, “using a microscope (4× and 10× magnification), and cells” for “using a microscope, and cells”
as §1, with “disrupted,” for “disrupted”

[3] = system: Mouse myoblast strain C2C12; assay: Myoblast proliferation (MTT, OD 595 nm) under H2O2; assay type: cell-based; conditions: single component 250 nM-20 μM, 400 nM H2O2, 16 hours
Description: Mouse myoblast strain C2C12 was dispensed in 96-well plates at 1.5×10^3 cells/well, and then cultured in DMEM medium containing 10% fetal bovine serum (FBS) at 37° C. and 5% CO2 for one day at a low density manner. […] At 16 hours since the replacement, the wells were treated with MTT reagent and then the mouse myoblast strain C2C12 was incubated in the DMEM medium in a dark incubator for 3 hours. After removing supernatant therefrom and applying 100 μl of DMSO to the well, the optical density (OD) was measured at 595 nm. Cells were identified using a microscope.

Mesenchymal stem cells = assay: Differentiation markers PAX7/MYF5 (Western blot) in stem cells isolated from cobratoxin-injured muscle; assay type: cell-based, mouse; conditions: OC-501 10 μM, OC-504 5 μM, individually or in combination; 4 days after the application
Description: Mesenchymal stem cells were isolated on day 3 after cobratoxin was inserted into the tibialis anterior muscle of the mouse. […] West blot analysis was performed using differentiation markers PAX7 (paired box protein-7) and MYF5 (Myogenic factor 5) antibodies. After the differentiation, cells were identified using a microscope (4× and 10× magnification).

[4] = system: tibialis anterior muscle of the mouse; assay: Early recovery of muscle fibers after cardiotoxin injury; assay type: in vivo; conditions: alone 30 mpk, combination each 15 or 30 mpk, 3 days after cardiotoxin
[5] = anticancer drug administered to CT26-transplanted mice, MRI

Compound | fat decrease [1, 5] | muscle amount decrease [1, 5] | differentiation of myoblast (microscope) [2] | differentiation promotion (Western blot myogenin and MHC) ([2]; single component at 5 μM) | differentiation promotion (Western blot myogenin and MHC) ([2]; single component at 10 μM) | myoblast proliferation [3] | expression of PAX7 (Mesenchymal stem cells) | fat mass [1] | muscle mass [1] | muscle fiber size [4]
O=c1[nH]cc(F)c(=O)[nH]1 [5-FU, 5-fluorouracil] | 95% | about 40% |  |  |  |  |  |  |  | 
CC(C)(CO)[C@@H](O)C(=O)NCCC(=O)O [calcium pantothenate] |  |  | promoted differentiation of myoblast | increased especially | increased especially | not to promote myoblast proliferation | increased | increased | increased | well sparred
CN(C)CCOC(c1ccccc1)c1ccccc1.Cn1c(=O)c2[nH]c(Cl)nc2n(C)c1=O [dimenhydrinate] |  |  |  | increased especially |  |  |  | increased | increased | well sparred
harmol |  |  | promoted differentiation of myoblast | increased especially | increased especially | not to promote myoblast proliferation |  |  |  | 
